Values of other authors in patent US6710179B2, “Compounds with analgesic effect” (AstraZeneca Canada Inc., priority 1996, dated 2004).

Legend:
[1] = non-peptidic δ antagonists; prior art statement
δ receptor = δ receptor (Homo sapiens, UniProt P41143); settings: non-peptidic δ antagonists; review Takemori and Portoghese 1992
Chain of δ receptor (P41143 whole entry): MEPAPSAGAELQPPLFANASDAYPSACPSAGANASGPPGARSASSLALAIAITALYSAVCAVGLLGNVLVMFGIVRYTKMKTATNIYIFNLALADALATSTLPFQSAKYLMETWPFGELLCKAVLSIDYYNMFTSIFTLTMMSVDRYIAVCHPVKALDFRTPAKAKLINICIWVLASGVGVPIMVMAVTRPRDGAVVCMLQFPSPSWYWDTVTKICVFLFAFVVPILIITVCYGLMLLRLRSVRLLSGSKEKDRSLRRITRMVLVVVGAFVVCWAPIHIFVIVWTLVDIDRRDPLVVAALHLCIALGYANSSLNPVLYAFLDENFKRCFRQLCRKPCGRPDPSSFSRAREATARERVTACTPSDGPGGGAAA

SMILES: Oc1ccc2c3c1O[C@H]1c4[nH]c5ccccc5c4C[C@@]4(O)[C@@H](C2)N(CC2CC2)CC[C@]314 [naltrindole]
- analgesic activity [1]: no analgesic activity
- selectivity for the δ receptor vs. μ receptor binding (δ receptor): < 10 fold
